What was measured:
Assay type in all cases: in vivo
[1] = test system: Alopecurus myosuroides (ALOMY); assay: B1 Pre-emergence herbicidal activity; parameters: key: 5=total damage to plant; 0=no damage to plant; conditions: pre-emergence application, evaluated after 13 days
Summary of the method: (§1)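 Pots of sown seeds were sprayed one day after sowing, pre-emergence, with compound in acetone/water (50:50) containing 0.5% Tween 20. Plants were grown in a glasshouse at 24/16 °C day/night, 14 h light and 65% humidity. Damage was scored after 13 days on a 0 (none) to 5 (total) scale.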

Avena fatua (AVEFA) [2] = assay: B1 Pre-emergence herbicidal activity; parameters: key: 5=total damage to plant; 0=no damage to plant; conditions: pre-emergence application, evaluated after 13 days
Summary of the method: as §1

[3] = test system: Triticum aestivium (TRZAW); assay: B1 Pre-emergence herbicidal activity; parameters: key: 5=total damage to plant; 0=no damage to plant; conditions: pre-emergence application, evaluated after 13 days
Summary of the method: as §1

[4] = test system: Echinochloa crus-galli (ECHCG); assay: B1 Pre-emergence herbicidal activity; parameters: key to Pre-emergence herbicidal activity, ECHCG (damage score 0-5): 5=total damage to plant; 0=no damage to plant; conditions: pre-emergence application, evaluated after 13 days
Summary of the method: as §1

Lolium perenne (LOLPE) [5] = assay: B1 Pre-emergence herbicidal activity; parameters: key to Pre-emergence herbicidal activity, LOLPE (damage score 0-5): 5=total damage to plant; 0=no damage to plant; conditions: pre-emergence application, evaluated after 13 days
Summary of the method: as §1

Setaria fabenr (SETFA) = assay: B1 Pre-emergence herbicidal activity; parameters: key to Pre-emergence herbicidal activity, SETFA (damage score 0-5): 5=total damage to plant; 0=no damage to plant; conditions: pre-emergence application, evaluated after 13 days
Summary of the method: as §1

Avena fatua (AVEFA) [6] = assay: B2 Post-emergence herbicidal activity; conditions: post-emergence application, evaluated after 13 days
Summary of the method: (§2)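 Plants grown 8 days in a glasshouse (24/16° C day/night, 14 h light, 65% humidity) were sprayed post-emergence with active ingredient formulated in acetone/water (50:50) containing 0.5% Tween 20. Damage was scored after 13 days on a 0–5 scale (5 = total damage).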

[7] = test system: Echinochloa crus-galli (ECHCG); assay: B2 Post-emergence herbicidal activity; parameters: key to Post-emergence herbicidal activity, ECHCG (damage score 0-5): 5=total damage to plant; 0=no damage to plant; conditions: post-emergence application, evaluated after 13 days
Summary of the method: as §2

Lolium perenne (LOLPE) [8] = assay: B2 Post-emergence herbicidal activity; conditions: post-emergence application, evaluated after 13 days
Summary of the method: as §2

[9] = test system: Alopecurus myosuroides (ALOMY); assay: B2 Post-emergence herbicidal activity; parameters: key: 5=total damage to plant; 0=no damage to plant; conditions: post-emergence application, evaluated after 13 days
Summary of the method: as §2

Setaria fabenri (SETFA) = assay: B2 Post-emergence herbicidal activity; parameters: key: 5=total damage to plant; 0=no damage to plant; conditions: post-emergence application, evaluated after 13 days
Summary of the method: as §2

[10] = test system: Triticum aestivium (TRZAW); assay: B2 Post-emergence herbicidal activity; parameters: key: 5=total damage to plant; 0=no damage to plant; conditions: post-emergence application, evaluated after 13 days
Summary of the method: as §2

Row | SMILES | Pre-emergence herbicidal activity, ALOMY (damage score 0-5) ([1]; rate 1000 g/ha) | Pre-emergence herbicidal activity, AVEFA (damage score 0-5) (Avena fatua (AVEFA) [2]; rate 1000 g/ha) | Pre-emergence herbicidal activity, TRAZW (damage score 0-5) ([3]; rate 1000 g/ha) | Pre-emergence herbicidal activity, ECHCG (damage score 0-5) ([4]; rate 1000 g/ha) | Pre-emergence herbicidal activity, LOLPE (damage score 0-5) (Lolium perenne (LOLPE) [5]; rate 1000 g/ha) | Pre-emergence herbicidal activity, SETFA (damage score 0-5) (Setaria fabenr (SETFA); rate 1000 g/ha) | Post-emergence herbicidal activity, AVEFA (damage score 0-5) (Avena fatua (AVEFA) [6]; rate 1000 g/ha) | Post-emergence herbicidal activity, ECHCG (damage score 0-5) ([7]; rate 1000 g/ha) | Post-emergence herbicidal activity, LOLPE (damage score 0-5) (Lolium perenne (LOLPE) [8]; rate 1000 g/ha) | Post-emergence herbicidal activity, ALOMY (damage score 0-5) ([9]; rate 1000 g/ha) | Post-emergence herbicidal activity, SETFA (damage score 0-5) (Setaria fabenri (SETFA); rate 1000 g/ha) | Post-emergence herbicidal activity, TRAZW (damage score 0-5) ([10]; rate 1000 g/ha) | also measured
1 | O=C(Nc1ccc(-c2cncc(F)c2)nc1C(F)(F)F)c1cccnc1 [Compound C50, N-[6-(5-fluoro-3-pyridyl)-2-(trifluoromethyl)-3-pyridyl]pyridine-3-carboxamide] | 0 | 1 | 0 | 3 | 1 | 4 | 3 | 2 | 1 | 1 | 4 | 0 | –
2 | O=C(Nc1ccc(-c2cncnc2)nc1C(F)(F)F)C(Cl)Cl [Compound C65] | 0 | 3 | 0 | 4 | 2 | 3 | 4 | 5 | 3 | 0 | 5 | 0 | –
3 | CCC(=O)N(CCCN(CC)CC)c1ccc(-c2cncc(F)c2)nc1C(F)(F)F [Compound C95] | 0 | 1 | 0 | 3 | 1 | 4 | 2 | 5 | 2 | 1 | 5 | 1 | –
4 | Cc1ccc(C(=O)Nc2ccc(-c3cncc(F)c3)nc2C(F)(F)F)s1 [Compound C52] | 1 | 1 | 0 | 4 | 1 | 5 | 4 | 4 | 2 | 0 | 5 | 0 | –
5 | O=C(Nc1ccc(-c2cncc(F)c2)nc1C(F)(F)F)c1ccccc1 [Compound C14] | 2 | 1 | 0 | 5 | 2 | 4 | 4 | 5 | 4 | 1 | 5 | 1 | –
6 | C/C=C/C(=O)Nc1ccc(-c2cncc(F)c2)nc1C(F)(F)F [Compound C23] | 1 | 3 | 1 | 5 | 1 | 5 | 3 | 5 | 3 | 0 | 5 | 0 | –
7 | O=C(Nc1ccc(-c2cncc(F)c2)nc1C(F)(F)F)c1nccs1 [Compound C117] | – | – | – | – | – | – | – | – | – | – | – | – | Pre-emergence herbicidal activity, ALOMY (damage score 0-5) ([1]; rate 250 g/ha): 0; Pre-emergence herbicidal activity, AVEFA (damage score 0-5) (Avena fatua (AVEFA) [2]; rate 250 g/ha): 0; Pre-emergence herbicidal activity, TRAZW (damage score 0-5) ([3]; rate 250 g/ha): 0; Pre-emergence herbicidal activity, ECHCG (damage score 0-5) ([4]; rate 250 g/ha): 1; Pre-emergence herbicidal activity, LOLPE (damage score 0-5) (Lolium perenne (LOLPE) [5]; rate 250 g/ha): 0; Pre-emergence herbicidal activity, SETFA (damage score 0-5) (Setaria fabenr (SETFA); rate 250 g/ha): 2; Post-emergence herbicidal activity, AVEFA (damage score 0-5) (Avena fatua (AVEFA) [6]; rate 250 g/ha): 3; Post-emergence herbicidal activity, ECHCG (damage score 0-5) ([7]; rate 250 g/ha): 1; Post-emergence herbicidal activity, LOLPE (damage score 0-5) (Lolium perenne (LOLPE) [8]; rate 250 g/ha): 1; Post-emergence herbicidal activity, ALOMY (damage score 0-5) ([9]; rate 250 g/ha): 1; Post-emergence herbicidal activity, SETFA (damage score 0-5) (Setaria fabenri (SETFA); rate 250 g/ha): 4; Post-emergence herbicidal activity, TRAZW (damage score 0-5) ([10]; rate 250 g/ha): 0
8 | O=C(Nc1ccc(-c2cncc(F)c2)nc1C(F)(F)F)c1ccccc1F [Compound C46] | 0 | 1 | 0 | 2 | 1 | 4 | 2 | 3 | 1 | 0 | 4 | 0 | –
9 | O=C1CCCN1c1ccc(-c2cncc(F)c2)nc1C(F)(F)F [Compound C55] | 0 | 1 | 0 | 1 | 1 | 4 | 3 | 4 | 2 | 1 | 4 | 0 | –
10 | O=C(c1ccccc1)N(CC1CC1)c1ccc(-c2cncc(F)c2)nc1C(F)(F)F [Compound C103] | 0 | 0 | 0 | 0 | 0 | 1 | 2 | 1 | 1 | 0 | 2 | 0 | –
11 | O=C1CCC(=O)N1c1ccc(-c2cncc(F)c2)nc1C(F)(F)F [Compound C67, 1-[6-(5-fluoro-3-pyridyl)-2-(trifluoromethyl)-3-pyridyl]pyrrolidine-2,5-dione] | 0 | 0 | 0 | 1 | 0 | 2 | 2 | 4 | 2 | 0 | 4 | 0 | –
12 | O=C(Nc1ccc(-c2cncc(F)c2)nc1C(F)(F)F)c1c(F)cccc1F [Compound C31] | 1 | 2 | 0 | 4 | 0 | 5 | 3 | 5 | 3 | 0 | 5 | 0 | –

— US11230538B2, “Herbicides” (SYNGENTA PARTICIPATIONS AG, priority 2016, dated 2022)
